# From ChEMBL document CHEMBL1201862, “PubChem BioAssay data set” (2004)
# The source made the active and inactive calls.
# Tests used:
# [1] = OVCAR-3 cell viability loss – plate reader, dry powder samples, PAX8 inhibitor project, dose response (AID 743044); type: functional, cell-based
# [2] = blockers of HIV-1 envelope-mediated cell-cell fusion – cherry-pick, dose response (AID 652057); type: functional, cell-based
# [3] = HIV-1 AD8 envelope cell-cell fusion blockers – cherry-pick, dose response (AID 652062); type: functional, cell-based;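 also: luciferase signal from cell-cell fusion driven by HIV-1 clade B AD8 Env; potency is for inhibitors of fusion seen as a drop in luminescence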
# Paired box protein Pax-8 = Paired box protein Pax-8 (Homo sapiens, UniProt Q06710); test: PAX8 transcriptional activity inhibition in RMG-I – RMG-I cells, luciferase, cherry-pick, dose response (AID 687027); type: functional, cell-based;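 also: luciferase reporter driven by Pax8 target thyroperoxidase promoter measured by SteadyGlo luminescence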
# [4] = general cell-killing toxicity readout – plate reader, dry powder samples, cytotoxicity control for PAX8 inhibitor project, dose response (AID 743021); type: functional, cell-based
# [5] = target: T1, 1-phosphatidylinositol 4,5-bisphosphate phosphodiesterase gamma-1 (Homo sapiens, UniProt P19174); test: Counterscreen for inhibitors of phospholipase C isozymes (PLC-B3): Fluorescence-based biochemical high throughput dose response assay to identify inhibitors of phospholipase C isozymes (PLC-gamma1).
# T1 sequence (P19174 whole entry): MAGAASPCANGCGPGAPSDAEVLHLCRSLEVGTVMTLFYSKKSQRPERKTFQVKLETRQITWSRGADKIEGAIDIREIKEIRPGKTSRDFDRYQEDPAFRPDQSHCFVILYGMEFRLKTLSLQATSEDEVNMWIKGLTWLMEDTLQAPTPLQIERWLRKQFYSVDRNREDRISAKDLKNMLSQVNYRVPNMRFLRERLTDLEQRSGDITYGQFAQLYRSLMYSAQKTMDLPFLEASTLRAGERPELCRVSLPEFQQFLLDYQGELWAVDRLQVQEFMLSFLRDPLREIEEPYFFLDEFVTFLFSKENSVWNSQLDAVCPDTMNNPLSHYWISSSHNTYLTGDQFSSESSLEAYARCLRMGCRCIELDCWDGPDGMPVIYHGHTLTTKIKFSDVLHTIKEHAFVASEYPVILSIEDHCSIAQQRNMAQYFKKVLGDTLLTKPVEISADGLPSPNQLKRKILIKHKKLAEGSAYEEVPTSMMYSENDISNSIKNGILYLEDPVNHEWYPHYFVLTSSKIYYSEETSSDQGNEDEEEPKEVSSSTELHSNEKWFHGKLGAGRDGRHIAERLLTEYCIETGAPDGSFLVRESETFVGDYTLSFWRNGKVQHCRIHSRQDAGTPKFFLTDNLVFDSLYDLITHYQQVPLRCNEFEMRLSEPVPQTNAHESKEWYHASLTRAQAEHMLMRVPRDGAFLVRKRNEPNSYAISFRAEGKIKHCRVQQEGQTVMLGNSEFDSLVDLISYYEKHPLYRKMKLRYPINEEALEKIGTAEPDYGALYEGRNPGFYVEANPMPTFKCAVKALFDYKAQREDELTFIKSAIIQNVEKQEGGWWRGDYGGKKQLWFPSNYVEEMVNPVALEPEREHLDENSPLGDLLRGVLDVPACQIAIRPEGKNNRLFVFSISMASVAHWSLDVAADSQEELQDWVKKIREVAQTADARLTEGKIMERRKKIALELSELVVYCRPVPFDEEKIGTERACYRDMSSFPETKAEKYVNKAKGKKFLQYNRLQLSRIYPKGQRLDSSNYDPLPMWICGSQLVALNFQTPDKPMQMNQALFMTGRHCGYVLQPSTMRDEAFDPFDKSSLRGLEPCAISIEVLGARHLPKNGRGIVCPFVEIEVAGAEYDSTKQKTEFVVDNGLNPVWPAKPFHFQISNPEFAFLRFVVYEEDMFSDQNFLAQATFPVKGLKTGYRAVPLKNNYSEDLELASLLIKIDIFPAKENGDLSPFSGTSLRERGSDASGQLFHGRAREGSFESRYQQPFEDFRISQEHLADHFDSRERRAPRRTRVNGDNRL
# [6] = target: T2, 1-phosphatidylinositol 4,5-bisphosphate phosphodiesterase beta-3 (Homo sapiens, UniProt Q01970); test: Fluorescence-based biochemical high throughput dose response assay to identify inhibitors of phospholipase C isozymes (PLC-B3).
# T2 sequence (Q01970 whole entry): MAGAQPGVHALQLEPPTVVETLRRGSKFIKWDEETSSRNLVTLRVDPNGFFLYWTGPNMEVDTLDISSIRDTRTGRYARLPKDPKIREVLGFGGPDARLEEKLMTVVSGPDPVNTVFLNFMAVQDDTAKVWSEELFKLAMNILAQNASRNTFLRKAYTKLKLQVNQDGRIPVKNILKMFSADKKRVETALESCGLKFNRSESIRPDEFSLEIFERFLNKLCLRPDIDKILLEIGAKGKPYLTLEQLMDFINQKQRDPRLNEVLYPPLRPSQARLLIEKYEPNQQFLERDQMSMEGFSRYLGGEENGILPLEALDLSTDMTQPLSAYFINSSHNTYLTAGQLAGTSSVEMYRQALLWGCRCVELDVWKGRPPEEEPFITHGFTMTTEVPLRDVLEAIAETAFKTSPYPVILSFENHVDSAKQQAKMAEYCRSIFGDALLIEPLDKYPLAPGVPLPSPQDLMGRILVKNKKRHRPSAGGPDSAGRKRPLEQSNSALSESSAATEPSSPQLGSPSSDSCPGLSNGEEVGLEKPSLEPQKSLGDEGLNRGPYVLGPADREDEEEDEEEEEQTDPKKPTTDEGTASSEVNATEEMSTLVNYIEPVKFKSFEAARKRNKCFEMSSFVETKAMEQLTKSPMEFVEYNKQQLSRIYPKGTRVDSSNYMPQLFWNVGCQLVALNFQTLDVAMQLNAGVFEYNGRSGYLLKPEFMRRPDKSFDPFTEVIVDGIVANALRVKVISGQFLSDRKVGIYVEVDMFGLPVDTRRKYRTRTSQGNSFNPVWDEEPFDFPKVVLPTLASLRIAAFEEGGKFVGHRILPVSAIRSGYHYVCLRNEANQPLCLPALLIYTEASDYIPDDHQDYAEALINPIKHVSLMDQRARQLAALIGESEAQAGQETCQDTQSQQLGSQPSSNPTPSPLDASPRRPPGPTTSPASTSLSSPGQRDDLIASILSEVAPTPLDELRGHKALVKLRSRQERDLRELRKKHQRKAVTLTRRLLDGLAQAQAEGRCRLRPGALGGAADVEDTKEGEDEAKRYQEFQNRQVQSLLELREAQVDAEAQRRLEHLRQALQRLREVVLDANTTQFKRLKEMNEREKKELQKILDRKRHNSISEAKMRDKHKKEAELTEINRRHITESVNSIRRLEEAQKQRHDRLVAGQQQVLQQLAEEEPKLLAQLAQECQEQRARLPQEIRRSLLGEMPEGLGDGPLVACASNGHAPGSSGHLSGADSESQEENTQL
# [7] = target: T3, Bifunctional protein GlmU (Mycobacterium tuberculosis, UniProt P9WMN3); test: Inhibitors of Mycobacterial Glucosamine-1-phosphate acetyl transferase (GlmU). Secondary screen.; parameters: species or system Mycobacterium tuberculosis H37Rv
# T3 sequence (P9WMN3 whole entry): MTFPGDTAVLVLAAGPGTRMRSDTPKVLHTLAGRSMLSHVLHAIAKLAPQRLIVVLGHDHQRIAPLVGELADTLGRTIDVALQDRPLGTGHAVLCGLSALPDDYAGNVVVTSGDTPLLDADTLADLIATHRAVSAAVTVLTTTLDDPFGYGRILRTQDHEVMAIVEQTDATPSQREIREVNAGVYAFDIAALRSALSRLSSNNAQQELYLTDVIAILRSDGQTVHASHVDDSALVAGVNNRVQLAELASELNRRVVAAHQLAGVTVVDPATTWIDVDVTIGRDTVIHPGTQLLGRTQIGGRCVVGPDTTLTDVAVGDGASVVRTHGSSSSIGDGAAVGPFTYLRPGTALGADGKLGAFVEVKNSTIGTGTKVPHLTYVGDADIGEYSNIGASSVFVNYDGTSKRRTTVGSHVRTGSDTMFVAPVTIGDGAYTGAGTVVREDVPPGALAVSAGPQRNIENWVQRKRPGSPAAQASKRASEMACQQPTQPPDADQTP
# BJ [8] = test: BJ-TERT-LT-ST fibroblast viability loss – cell-based, RAS-independent, luminescence, dose response (AID 1935); type: functional; conditions: Homo sapiens;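 also: BJ fibroblasts immortalized with TERT plus LT and ST oncogenes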
# [9] = SNU-C1 cell viability reduction, dose response, CellTiter-Glo luminescence (AID 1117323); type: functional, cell-based
# BJ [10] = test: cells; type: functional, cell-based; conditions: Homo sapiens
# [11] = DRD fibroblast viability loss – cell-based, non-viral oncogenic, luminescence, dose response (AID 1934); type: functional; conditions: Homo sapiens
# BJ [12] = test: growth inhibition of engineered Ras-driven BJ cells – cell-based, alamar blue fluorescence, cherrypicked samples, dose response (AID 2631); type: functional; conditions: Homo sapiens;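 also: confirmatory dose-response assay in RAS-dependent BJ fibroblasts engineered with TERT, LT and ST, with cytotoxicity read by fluorescence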
# [13] = rise of 2N DNA cells, HeLa – IC50, dose response (AID 1117349); type: functional, cell-based
# [14] = cytotoxicity toward HT-29 cells – cell-based, CellTiter-Glo luminescence, IC50, dose response (AID 1117330); type: functional
# [15] = rise of 4N DNA cells, HeLa – IC50, dose response (AID 1117351); type: functional, cell-based
# [16] = RKO cell viability reduction, dose response, CellTiter-Glo luminescence (AID 1117322); type: functional
# [17] = HCT116 cell viability decrease, GSK3B pretreatment – CellTiter-Glo, IC50, dose response (AID 1117339); type: functional; conditions: HCT-116
# [18] = cytotoxicity toward HCT116 cells – cell-based, CellTiter-Glo luminescence, IC50, dose response (AID 1117332); type: functional; conditions: HCT-116
# [19] = Reduced DLD-1 viability, concentration-response, CellTiter-Glo luminescence (AID 1117352); type: functional
# BJ [20] = test: BJ-TERT fibroblast viability loss – cell-based, RAS-independent, luminescence, dose response (AID 1933); type: functional; conditions: Homo sapiens
# Paired box protein Pax-8, sequence (Q06710 whole entry): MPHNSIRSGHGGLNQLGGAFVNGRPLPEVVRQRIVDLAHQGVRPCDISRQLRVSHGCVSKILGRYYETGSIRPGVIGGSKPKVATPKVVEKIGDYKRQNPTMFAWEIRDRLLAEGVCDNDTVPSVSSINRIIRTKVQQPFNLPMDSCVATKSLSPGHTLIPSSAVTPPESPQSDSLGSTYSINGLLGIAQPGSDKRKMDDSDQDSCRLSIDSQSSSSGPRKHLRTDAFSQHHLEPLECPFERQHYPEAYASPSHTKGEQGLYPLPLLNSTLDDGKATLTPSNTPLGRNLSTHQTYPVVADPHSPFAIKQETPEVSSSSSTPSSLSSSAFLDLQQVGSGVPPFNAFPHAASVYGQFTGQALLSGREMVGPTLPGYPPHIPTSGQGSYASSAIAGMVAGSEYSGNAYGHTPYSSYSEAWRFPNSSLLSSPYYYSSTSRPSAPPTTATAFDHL
structure (smiles),measurement,setting,value
COc1ccccc1C#Cc1ccc2c(c1)O[C@H](CN(C)Cc1ccncc1)[C@@H](C)CN([C@@H](C)CO)S2(=O)=O,AC50,[1],57.8 µM (active)
same,AC50,[2],38.1 µM (active)
same,AC50,[3],25.9 µM (active)
same,AC50,Paired box protein Pax-8,10.9 µM (active)
same,AC50,[4],61.5 µM (active)
CCNC(=O)C[C@H]1CC[C@H]2[C@@H](COc3ccc(NC(=O)c4ccc5c(c4)OCO5)cc3C(=O)N2C)O1,IC50,[5],47.8 µM (inactive)
same,IC50,[6],45.1 µM (inactive)
Cc1ccc(OCC(=O)N/N=C\c2ccc(-c3cccc(C(=O)O)c3)o2)c(C)c1,IC50,[7],137 µM (active)
Cn1cnc([N+](=O)[O-])c1Sc1ncnc2[nH]cnc12 [AZATHIOPRINE],EC50,BJ [8],> 150 µM (not active)
same,IC50,[9],> 20 µM (inactive)
same,EC50,BJ [10],5.04 µM (inconclusive)
same,EC50,[11],2.9 µM (active)
same,EC50,BJ [12],> 133 µM (inactive)
same,IC50,[13],> 10 µM (inactive)
same,IC50,[14],> 20 µM (inactive)
same,IC50,[15],> 10 µM (inactive)
same,IC50,[16],2.66 µM (active)
same,IC50,[17],0.623 µM (active)
same,IC50,[18],0.207 µM (active)
same,IC50,[19],0.364 µM (active)
same,EC50,BJ [20],> 150 µM (not active)
CCCCCCCCCCCCNCCNCCNCC(=O)O [DODICIN],IC50,[13],> 10 µM (inactive)
same,IC50,[15],> 10 µM (inactive)
